This is an account of results in US5187157A, “Peptide boronic acid inhibitors of trypsin-like proteases” (Du Pont Merck Pharmaceutical Company, priority 1988, dated 1993).

The target of one series is T1, Human plasma kallikrein (Homo sapiens, UniProt P03952).
T1 construct: purchased Protogen AG (Switzerland)
Nature of the series: Inhibition of Human Plasma Kallikrein. It is filed as biochemical. Particulars: activity remaining 10 to 20 min after initiation. The protocol:
(§1) In the Examples which follow, the hydrolytic activity of each enzyme is measured in both the presence and absence of inhibitor and the percent enzyme activity determined. […] A steady state is reached fairly rapidly and nears completion within 5 min. Activity is evaluated between 10-20 min after the components are mixed to insure that reaction components are at equilibrium. The lowest concentration of inhibitor tested is determined by the estimated concentration of enzyme. […] The maintenance of pseudo-first-order reaction conditions and the sensitivity of the respective assays sets the lowest limit level of inhibitor tested at 10 nM for kallikrein inhibitors and 5 nM for thrombin inhibitors.
Human plasma kallikrein was obtained from Protogen AG (Switzerland). The specific activity as described by the supplier is 15 units per mg. A unit is defined as the quantity of enzyme required to hydrolyze 1 μmole of substrate, H-(D)Pro-Phe-Arg-p-nitroanilide (Kabi S2302), per min at a substrate concentration of 0.50 mM at 25° in 50 mM potassium phosphate buffer, pH 8.0.

Series [1] relates to normal human plasma. Nature of the series: Prothrombin times (PT), blood coagulation in vitro. Type of series: biochemical. Particulars: for Calc. Concentration 2 × XPT: approximate concentration required to increase PT two fold. The protocol: (§2) The effectiveness of inhibitors in reactions in which they compete with natural substrates for target enzymes is measured in vitro in blood coagulation assays. Two different assays are used, the APTT (activated partial thromboplastin times) and PT (prothrombin times) assays. These assays mimic the blood clotting process in vivo. Blood coagulation occurs through either of two pathways, each consisting of a cascades of zymogen activation steps. The pathways are termed the intrinsic and the extrinsic pathways (see L. Lorand, Methods in Enzymology 45: 31-37 (1976). The intrinsic pathway is initiated by negatively charged surfaces in which plasma kallikrein, factor XII and factor […] are activated and then factors IX and X and prothrombin are activated in calcium dependent steps. Thrombin, the last protease in the cascade, hydrolyses fibrinogen to fibrin which results in clot formation. In the APTT assay, plasma components are activated by exposure to negatively charged surfaces and then clotting times are measured after calcium is added to the system. In the extrinsic pathway, tissue thromboplastin activates factor VII which then activates factor X leading to the activation of thrombin. These events are measured in the prothrombin times assay.
For PT assays, inhibitor solutions (0.100 mL) were incubated with normal human plasma (0.100 mL) for 2 min at 37°.

The next series deals with T2, Human thrombin (Homo sapiens, UniProt P00734).
T2 construct: purchased R.Q.P. Laboratories, South Bend, IN Lot HT102
Nature of the series: Inhibition of Thrombin (Esterase Activity). Type of series: biochemical. To be noted: activity remaining 10 to 20 min after initiation. The protocol:
as §1
A stock solution of thrombin was prepared in 0.010M PIPES Buffer, pH 6.0, containing 0.75 M sodium chloride. […] The initial concentration of substrate was 0.10 mM and the concentration of thrombin was 1.0 nM (based on weight).

The test system of series [2] is normal human plasma. Nature of the series: Activated partial thromboplastin times (APTT), blood coagulation in vitro. Type of series: biochemical. To be noted: for Calc. Concentration 2 × APTT: approximate concentration required to increase APTT two fold. The procedure: as §2
The effect of protease inhibitors on blood coagulation in vitro was determined by measuring their effects on two different clinical parameters, the activated partial thromboplastin times (APTT) and prothrombin times (PT). Reagents for each of these assays were supplied by General Diagnostics, Jessup MD. Stock solutions of inhibitors were prepared in […] HEPES buffer, pH 7.5, containing 0.10 M sodium chloride. For the APTT assay, the inhibitor solution (0.100 mL) was incubated with normal human plasma (0.100 mL) and automated APTT reagent (0.100 mL). After incubation for 5.0 min at 37°, calcium chloride (0.100 mL) was added and the clotting times, measured in seconds, was determined on a fibrameter. The effects of the varying concentrations of inhibitor on blood clotting times compared with the clotting times of controls run in the absence of inhibitor, are shown in Table 3.

The nature of series [3]: Stability of Inhibitors in Human Plasma As Measured By APTT. Type of series: in vitro ADME. Particulars: for Clotting Time: 250 nM in APTT assay. The procedure:
The stability of inhibitors in plasma was determined by their ability to inhibit blood coagulation. First, a stock solutions (1.0 μM) of the inhibitors to be tested in 25 mM HEPES buffer, pH 7.5, containing 0.10 M sodium chloride were diluted 50% with normal human plasma. The mixtures were made at 0°, then aliquots (0.200 mL) were removed and incubated for 2 min at 37°. An equal volume of automated APTT reagent was added and clotting times were measured as described in Examples 111-117. The final concentration of inhibitor during the clotting assays was 250 nM. Values for compounds E and F were determined simultaneously with the Control. Values for compounds A, B and C were obtained on a different day.

Series [4] is described as follows: Stability of Inhibitors in Buffer (thrombin assay). Particulars: for Percent Thrombin activity: 1.0 μM; for stability in phosphate buffer at pH 7.5 (inhibitory activity): phosphate buffer pH 7.5.
Experimental: Samples of the inhibitors are removed at increasing time intervals and their ability to delay clotting is measured at each interval.
Inhibitors, each at a concentration of 1.0 μM, were incubated at room temperature in 0.20 M sodium phosphate buffer, pH 7.5, containing 0.20 M sodium chloride and 0.10% PEG.
In another series the test system is Sprague Dawley CD Rats. Nature of the series: In Vivo Inhibition of Croton Oil Induced Inflammation (ear swelling).
The mark [5] stands for this setting: incubation in human plasma 0.5 h.
[6] abbreviates: incubation in human plasma 24 h.
The mark [7] stands for this setting: incubation in human plasma 48 h.
[8] abbreviates: Table 14, dose=100 μg, essentially the same conditions.

T1 sequence (P03952 391-638 limits assumed): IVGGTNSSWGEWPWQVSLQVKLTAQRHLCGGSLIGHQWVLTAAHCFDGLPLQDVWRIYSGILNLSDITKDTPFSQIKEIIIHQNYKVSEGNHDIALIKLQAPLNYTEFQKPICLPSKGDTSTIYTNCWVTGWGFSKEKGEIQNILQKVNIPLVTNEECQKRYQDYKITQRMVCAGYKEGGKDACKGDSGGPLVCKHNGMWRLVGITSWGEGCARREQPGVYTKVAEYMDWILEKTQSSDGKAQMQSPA
T1 sequence (P03952 20-390 partner limits assumed): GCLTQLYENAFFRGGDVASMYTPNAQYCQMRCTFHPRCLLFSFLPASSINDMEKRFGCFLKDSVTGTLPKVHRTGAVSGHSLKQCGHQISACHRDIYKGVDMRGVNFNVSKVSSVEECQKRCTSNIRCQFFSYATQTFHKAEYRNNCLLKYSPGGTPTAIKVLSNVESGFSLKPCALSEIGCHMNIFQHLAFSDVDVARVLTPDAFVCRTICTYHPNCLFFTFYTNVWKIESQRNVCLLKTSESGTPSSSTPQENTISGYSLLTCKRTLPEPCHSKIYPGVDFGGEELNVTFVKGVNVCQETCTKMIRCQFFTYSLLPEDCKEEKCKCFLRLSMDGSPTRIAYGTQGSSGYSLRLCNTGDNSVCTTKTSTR
Experimental for Sprague Dawley CD Rats: Two solutions were prepared, the first consisting of 5% croton oil, a known inflammatory agent, in an acetone carrier (Croton Solution) and the second consisting of 5% croton oil in an acetone carrier to which 10 mg/mL of a compound of the invention was added (Compound Solution). The Croton Solution (10 μL), or alternatively the Compound Solution (10 μL), was applied to the right ear of each animal (Sprague Dawley CD Rats, 130-140 g, supplied by Charles River Labs, Inc., Wilmington, MA). […] "SE" denotes standard error.

Turning to `CC1(C)C2CC3OB(C(CCCN=C(N)N)NC(=O)C4CCCN4C(=O)C(N)Cc4ccccc4)OC3(C)C1C2.Cl.Cl` (stereo not drawn) [B, H-(D)Phe-Pro-boroArg-C10 H16.2HCl], the “Percent Activity” value on Human plasma kallikrein (inhibitor 10 nM) was 61%; at Human thrombin (inhibitor 5 nM), 7%. The “Calc. Concentration 2 × XPT” value with normal human plasma [1] is 460 nM. Moreover, the “Prothrombin Times” value with normal human plasma [1] (inhibitor 12.5 nM) was 20.1 s; with normal human plasma [1] (inhibitor 250 nM), 22.5 s; in the series on normal human plasma [1] (inhibitor 500 nM), 33.8 s; in the series with normal human plasma [1] (inhibitor 625 nM), 46.5 s; in the series on normal human plasma [1] (inhibitor 750 nM), 85.3 s; in the series on normal human plasma [1] (inhibitor 1000 nM), over 250 s. Besides, the “Calc. Concentration 2 × APTT” value in the series with normal human plasma [2] is reported as 170 nM. The “Activated Partial Thromboplastin Times” value stood at 36.5 s in the series with normal human plasma [2] (inhibitor 62.5 nM); 44.2 s with normal human plasma [2] (inhibitor 125 nM); 71.5 s with normal human plasma [2] (inhibitor 200 nM); 158.7 s with normal human plasma [2] (inhibitor 250 nM); 169.7 s with normal human plasma [2] (inhibitor 300 nM); 249.7 s in the series on normal human plasma [2] (inhibitor 350 nM). The “Clotting Time” value in series [3] (incubation in human plasma 0 h) turned out to be 152.2 s; in series [3] (setting [5]) it was 157.7 s; in series [3] (incubation in human plasma 1 h), 163.7 s; in series [3] (incubation in human plasma 2 h), 152.8 s; in series [3] (incubation in human plasma 4 h) it was 157.7 s; in series [3] (setting [6]), 109.3 s. Besides, the “stability in human plasma (inhibitor activity by clotting time)” value in series [3] (incubation with plasma) is “lost activity after 24 h”. For the same molecule, the “Percent Thrombin activity” value worked out at 2.0% in series [4] (0 hr in 0.20 M sodium phosphate buffer pH 7.5, room temperature); 15% in series [4] (0.5 hr in 0.20 M sodium phosphate buffer pH 7.5, room temperature); 100% in series [4] (1 hr in 0.20 M sodium phosphate buffer pH 7.5, room temperature). In addition, the “stability in phosphate buffer at pH 7.5 (inhibitory activity)” value is recorded as “loses its biological activity over a period of an hour” in series [4] and “lost inhibitory activity within one hour” in series [4] (listed as H-(D)Phe-Pro-boroArg-C10 H16).
`CC(=O)NC(Cc1ccccc1)C(=O)NC(CCCNC(=N)N)B1OC2CC3CC(C3(C)C)C2(C)O1.Cl` (centres unmarked) [Compound F, Ac-Phe-boroArg-C10 H16.HCl]: the “Percent Activity” value was 48% at Human plasma kallikrein (inhibitor 10 nM) and 53% at Human thrombin (inhibitor 1000 nM). Besides, the “Calc. Concentration 2 × XPT” value in the series on normal human plasma [1] is 2500 nM. Moreover, the “Prothrombin Times” value with normal human plasma [1] (inhibitor 1000 nM) was 16.2 s; in the series on normal human plasma [1] (inhibitor 2000 nM), 20.8 s; in the series on normal human plasma [1] (inhibitor 4000 nM) it was 51.5 s. Further, the “Mean Right ear Wt.” value in the series on Sprague Dawley CD Rats (100 μg/ear with 5% croton oil, topical, 1 h) is given as 18.9 mg. Also, the “Mean Swelling (mg ± SE)” value in the series with Sprague Dawley CD Rats (100 μg/ear with 5% croton oil, topical, 1 h, right minus left ear weight) was 2.3 ± 0.7 mg. Further, in the series on Sprague Dawley CD Rats (Table 13, 100 μg/ear with 5% croton oil, topical, 1 h), the “Percent Inhibition” value is 79%. The “Calc. Concentration 2 × APTT” value in the series on normal human plasma [2] is given as 325 nM. Besides, the “Activated Partial Thromboplastin Times” value is 35 s in the series on normal human plasma [2] (inhibitor 50 nM); 35.2 s in the series with normal human plasma [2] (inhibitor 125 nM); 36.7 s in the series with normal human plasma [2] (inhibitor 200 nM); 44.8 s in the series with normal human plasma [2] (inhibitor 275 nM); 58.2 s with normal human plasma [2] (inhibitor 350 nM); 144.2 s with normal human plasma [2] (inhibitor 550 nM). Further, the “Clotting Time” value in series [3] (incubation in human plasma 0 h) amounted to 76.3 s; in series [3] (setting [5]) it was 76.4 s; in series [3] (incubation in human plasma 1 h) it was 76.7 s; in series [3] (incubation in human plasma 2 h), 79.6 s; in series [3] (incubation in human plasma 3 h) it was 77.8 s; in series [3] (incubation in human plasma 4 h), 81.8 s. Moreover, the “Clotting Time” value in series [3] (incubation in human plasma 5 h) was 80.8 s; in series [3] (incubation in human plasma 6 h) it was 79.3 s; in series [3] (setting [6]) it was 73.9 s; in series [3] (setting [7]), 49.3 s.
On to `Br.CC(=O)NC(Cc1ccccc1)C(=O)NC(CCCSC(=N)N)B1OC2CC3CC(C3(C)C)C2(C)O1` (centres unmarked) [G, Ac-Phe-boroIrg-C10 H16.HBr], for which the results for the “Percent Activity” value at Human plasma kallikrein (inhibitor 50 nM) and on Human thrombin (inhibitor 1000 nM) were 17% and 64%, respectively. In addition, the “Calc. Concentration 2 × XPT” value with normal human plasma [1] was 1200 nM. Besides, the “Prothrombin Times” value in the series on normal human plasma [1] (inhibitor 500 nM) was 13.7 s; in the series on normal human plasma [1] (inhibitor 750 nM), 14.9 s; with normal human plasma [1] (inhibitor 1000 nM), 19.7 s; in the series on normal human plasma [1] (inhibitor 2000 nM), 43.6 s. Moreover, the “Percent Inhibition” value in the series with Sprague Dawley CD Rats (setting [8]) is listed as 69%. Besides, the “Calc. Concentration 2 × APTT” value in the series on normal human plasma [2] is on record as 625 nM. Further, the “Activated Partial Thromboplastin Times” value with normal human plasma [2] (inhibitor 50 nM) turned out to be 35.2 s; in the series on normal human plasma [2] (inhibitor 125 nM), 36.2 s; in the series on normal human plasma [2] (inhibitor 200 nM), 39.3 s; in the series with normal human plasma [2] (inhibitor 275 nM), 58.2 s; in the series with normal human plasma [2] (inhibitor 350 nM) it was 66.7 s; in the series on normal human plasma [2] (inhibitor 550 nM), 98.4 s.
`CC(C)(C)OC(=O)N[C@H](Cc1ccccc1)C(=O)N[C@@H](Cc1ccccc1)C(=O)N[C@@H](CCCNC(=N)N)B1OC2CC3CC(C3(C)C)C2(C)O1.O=S(=O)(O)c1ccccc1` (stereo partly drawn) [E, Boc-(D)Phe-Phe-boroArg-C10 H16.benzene sulfonic acid]: the “Percent Activity” value is 5.2% at Human plasma kallikrein (inhibitor 10 nM) and 32% on Human thrombin (inhibitor 10 nM). Besides, in the series with normal human plasma [1], the “Calc. Concentration 2 × XPT” value is listed as 2600 nM. Besides, the “Prothrombin Times” value in the series on normal human plasma [1] (inhibitor 500 nM) came to 19.8 s; with normal human plasma [1] (inhibitor 750 nM), 22 s; in the series on normal human plasma [1] (inhibitor 1000 nM), 29.3 s; with normal human plasma [1] (inhibitor 2000 nM), 39 s; with normal human plasma [1] (inhibitor 4000 nM), 70.8 s. Moreover, in the series with Sprague Dawley CD Rats (setting [8]), the “Percent Inhibition” value is reported as 82%. Further, the “Calc. Concentration 2 × APTT” value with normal human plasma [2] is reported as 375 nM. In addition, the “Activated Partial Thromboplastin Times” value turned out to be 36.8 s in the series on normal human plasma [2] (inhibitor 50 nM); 40.5 s in the series with normal human plasma [2] (inhibitor 125 nM); 43.6 s in the series with normal human plasma [2] (inhibitor 200 nM); 52.8 s in the series with normal human plasma [2] (inhibitor 275 nM); 54.8 s with normal human plasma [2] (inhibitor 350 nM); 61.3 s in the series with normal human plasma [2] (inhibitor 550 nM). Moreover, the “Clotting Time” value is 63.2 s in series [3] (incubation in human plasma 0 h); 73.2 s in series [3] (setting [5]); 66.2 s in series [3] (incubation in human plasma 1 h); 67.7 s in series [3] (incubation in human plasma 2 h); 61.7 s in series [3] (incubation in human plasma 3 h); 58.2 s in series [3] (incubation in human plasma 4 h). Besides, the “Clotting Time” value in series [3] (incubation in human plasma 5 h) stood at 61.3 s; in series [3] (incubation in human plasma 6 h), 57.3 s; in series [3] (setting [6]) it was 64.7 s; in series [3] (setting [7]), 58.7 s.
